Literature values in article PMC2864005 (Archives of biochemistry and biophysics, 2010).

System: 3A4
Conditions: after an initial burst

CCC(C)n1ncn(-c2ccc(N3CCN(c4ccc(OCC5COC(Cn6cncn6)(c6ccc(Cl)cc6Cl)O5)cc4)CC3)cc2)c1=O (stereo not shown) [itraconazole]
Rate of metabolism: 0.0016 s⁻¹
